From patent US20160138113A1, “METHODS AND COMPOSITIONS FOR THE DIAGNOSIS, PROGNOSIS AND TREATMENT OF BRAIN METASTASIS” (MEMORIAL SLOAN-KETTERING CANCER CENTER, priority 2013, published 2016)

Tested on: CTSS
Experiment: shRNA-mediated CTSS knockdown in Br-M cells (qPCR, western blot)
Assay type: cell-based, human
Text: Five shRNA sequences targeting CTSS were obtained from the RNAi Codex and RNAi Consortium. shRNA sequences were inserted into the targeting hairpin sequence for the pRetroSuper vector. Correct insertion into the vector was verified by digestion and sequencing of the vector. Plasmids with the correct shRNA targeting sequence were transfected into H29 viral packaging cells. Viral particles were concentrated from the H29 cell supernatant, added to the target cells in the presence of polybrene and cells were selected with puromycin. One of the […] shRNAs (CTSS shRNA: GATAAAGTTTGCTAAGTAA—TTACTTAGCAAACTTTATC) was used for subsequent experiments to target CTSS with 90% KD efficiency. A non-targeting shRNA [CGCCATAAATATAACTTTA—TAAAGTTATATTTATGGCG] was used as control.
RNA was isolated with Trizol, DNase treated, and 0.2 μg of RNA was used for cDNA synthesis. Details about the Taqman assays can be found in Table 4. […]
Conditioned media (CM) from Br-M cell lines was generated by incubating confluent cell layers in serum-free DMEM media for 24 hours. […] Protein was quantified using the BCA assay (Pierce). […] Membranes were probed with antibodies as indicated in Table 5 and detected using the appropriate HRP-conjugated secondary antibodies using chemoluminescence detection (Millipore). Bands from western blots were quantified in the dynamic range using the Gel analysis module in ImageJ software.

## CTSS shRNA: shRNA targeting CTSS: GATAAAGTTTGCTAAGTAA—TTACTTAGCAAACTTTATC, in pRetroSuper vector (loop; in pRetroSuper vector)
  CTSS KD efficiency: 90%
